Patent US20210147571A1, “MONOCLONAL ANTIBODY TARGETING HUMAN TUMOR STEM CELLS AND USE THEREOF” (Suzhou Bojuhua Biomedical Technology Co. Ltd, priority 2017, published 2021)

B1: L11: humanized light chain version L11 (SEQ ID NO:47), higher humanized version based on L6 (protein)
light: DIVMTQTPFSNPVTLGQPASISCRSSKSLLHSNGITYLYWFLQKPGQSPQLLIYQMSNLASGVPDRFSGSGSGTDFTLKISRVEAEDVGVYYCAQNLELYTFGQGTKVEIKRTVAAPSVFIFPPSDEQLKSGTASVVCLLNNFYPREAKVQWKVDNALQSGNSQESVTEQDSKDSTYSLSSTLTLSKADYEKHKVYACEVTHQGLSSPVTKSFNRGEC
modifications: Humanized light chain L11

Tests used:
Bel7402-V13 sphere cells = assay: inhibition of cisplatin resistance (CCK-8 IC50 after antibody treatment); assay type: cell-based, human; conditions: PBS-treated Bel7402-V13 sphere cells
Description: (§1) Drug resistance is one of the biological features of tumor stem cells. […] Each group of cells was cultured with a medium containing 9 different concentrations, i.e., 0, 0.0625, 0.125, 0.25, 0.5, 1, 2, 4, and 8 μg/mL, of cisplatin. The complete medium containing cisplatin was replaced once every 48 hours. After 5 days, CCK-8 reagent was added according to the instructions of CCK-8 kit. OD450 absorbance values were measured, and the IC50 values for each group were calculated.

SPCA-1 cells [1] = assay: as above; assay type: cell-based, human; conditions: SPCA-1 control group
Description: as §1

SPCA-1 cells [2] = assay: CCK8 drug resistance (cisplatin IC50) of flow-sorted cells; assay type: cell-based, human
Description: In order to detect the drug resistance of Hetumomab^+ lung cancer cells, Hetumomab^+ cells, parental cells and Hetumomab^− cells obtained by flow sorting sphere cells of human lung cancer cells SPCA-1 were seeded at 5000 cells/well in a 96-well plate. […] Therefore, Hetumomab^+ lung cancer cells have stronger chemotherapeutic drug resistance than the parental cells and Hetumomab^− cells.

[3] = system: SPCA-1 transplanted tumor; assay: human lung cancer transplanted tumor treated with Hetumomab; assay type: in vivo, nude mice; conditions: cisplatin 0.3 mg/kg, day 28
Description: Specifically, the sphere cells of the human lung cancer cell line SPCA-1 were harvested and inoculated in nude mice at 2.5×10^5 cells/mouse. The mice were divided into following 5 groups, with 5 mice in each group: the PBS control group; the chemotherapy group (cisplatin 0.3 mg/kg); the high dose antibody Hetumomab group (40 mg/kg); the medium dose antibody Hetumomab group (10 mg/kg); and the low dose Hetumomab group (2.5 mg/kg). The antibody treatment was started on the second day after inoculation of lung cancer cells. The experimental groups and the control group were treated by intraperitoneal injection. The treatments were performed for 28 days after inoculation. The chemotherapeutic drug group was treated twice a week. The major and minor diameters of the subcutaneously transplanted tumors were measured twice a week. The tumor volume was calculated with the formula V=(π/6)×(major diameter×minor diameter×minor diameter). The change in tumor volume in each group was observed.

[4] = system: Bel7402-V13 transplanted tumor; assay: human liver cancer transplanted tumor treated with Hetumomab; assay type: in vivo, nude mice; conditions: cisplatin 0.3 mg/kg
Description: Bel7402-V13 sphere cells were inoculated subcutaneouly to nude mice at 30,000 cells/mouse. The nude mice were randomly divided into 6 groups (6 per group) as follows: the chemotherapy group (0.3 mg/kg cisplatin, 6 mice); the high dose antibody group (10 mg/kg, 6 mice); the high dose antibody+chemotherapy group (6 mice); the low dose antibody group (2.5 mg/kg, 6 mice); the low dose antibody+chemotherapy group (6 mice); and the PBS group (6 mice). The treatments were started the next day after the cells were inoculated, twice a week, and terminated after 5 weeks. The major and minor diameters of the subcutaneously transplanted tumor were measured twice a week. The tumor volume was calculated with the formula V=(π/6)×(major diameter×minor diameter×minor diameter), and the changes in tumor volume and growth rate of each group were observed. […] Tumor growth rate=(Vt−V0)/number of days, where Vt is the tumor volume at each measurement, and V0 is the tumor volume […] ([…]).

SNU-5 transplanted tumor = assay: human gastric cancer transplanted tumor treated with Hetumomab; assay type: in vivo, nude mice; conditions: cisplatin 0.3 mg/kg, one month
Description: Specifically, the sphere cells of the human gastric cancer cell line SNU-5-V13 were harvested and inoculated in nude mice at 2.5×10^5 cells/mouse. The mice were divided into following 7 groups, with 8 mice in each group: the PBS control group; the mouse IgG control group; the chemotherapy group (cisplatin 0.3 mg/kg); the high dose antibody Hetumomab group (20 mg/kg); the low dose Hetumomab group (1.25 mg/kg); the high dose Hetumomab+chemotherapeutic drug group; and the low dose Hetumomab+chemotherapeutic drug group. The antibody treatment was started on the second day after inoculation of gastric cancer cells.
The experimental groups and the control group were treated by intraperitoneal injection. The treatments were performed for one month. The chemotherapeutic drug group was treated for 4 weeks, twice a week. The major and minor diameters of the subcutaneously transplanted tumor were measured twice a week. The tumor volume was calculated with the formula V=(π/6)×(major diameter×minor diameter×minor diameter). The change in tumor volume in each group was observed.

Bel7402-V13 cells = assay: CCK8 drug resistance (cisplatin IC50) of flow-sorted cells; assay type: cell-based, human
Description: In order to detect the drug resistance of Hetumomab^+ liver cancer cells, Hetumomab^+ cells, parental cells and Hetumomab^− cells obtained by flow sorting sphere cells of human liver cancer cells Bel7402-V13 were seeded at 5000 cells/well in a 96-well plate. Each group of cells was cultured in a complete medium containing 8 different concentrations, i.e., 0 μg/mL, 0.0625 μg/mL, 0.125 μg/mL, 0.25 μg/mL, 0.5 μg/mL, 1 μg/mL, 2 μg/mL, and 4 μg/mL, of cisplatin. The medium was changed once every 3 days, and after 7 days, the OD value was measured by the CCK8 method to determine the IC50 reflecting drug resistance. […] Therefore, Hetumomab^+ liver cancer cells have stronger chemotherapeutic drug resistance than the parental cells and Hetumomab^− cells.

[5] = system: Bel7402-V13 transplanted tumor; assay: human liver cancer transplanted tumor treated with Hetuzumab H5L11; assay type: in vivo, nude mice; conditions: cisplatin 0.3 mg/kg, day 36
Description: Specifically, the sphere cells of the human liver cancer cell line Bel7402-V13 were harvested and inoculated subcutaneouly into nude mice at 30000 cells/mouse. […] The antibody treatments were started on the second day after inoculation of cancer cells. The experimental group and the control group were treated by intraperitoneal injection. The antibody treatments were performed for 36 days. The chemotherapeutic drug group was treated for 4 weeks, twice a week. The major and minor diameters of the subcutaneously transplanted tumor were measured twice a week. The tumor volume was calculated with the formula V=(π/6)×(major diameter×minor diameter×minor diameter). The change in tumor volume in each group was observed.

[6] = system: Hetumomab target antigen on cells; assay: cell ELISA affinity of humanized chain versions; assay type: binding, human; conditions: light chain mutant combined with heavy chain of Hetuximab
Source text: Based on the H1 heavy chain sequence, two other heavy chain mutants were designed as initial humanization: H2 and H3. The degree of humanization of these versions was in descending order. […] Since H1 was the most humanized version in which the framework regions were all humanized, H1 was finally determined as the preferred humanization molecular template.
Based on the L1 with fully humanized FR region, L2 and L3 were designed, and the degree of humanization of the three version was also in descending order. […] In order to find out which key amino acids were mutated during humanization, back mutations were performed, and nine different mutants (L4-L12) were prepared.
Therefore, L6, L11, and L12 were finally selected for optimization screening of the best light chain humanized version.
However, glycosylated isomers of Hetuzumab H1 heavy chain were confirmed by antibody sequence analysis and reductive electrophoresis analysis. In the analysis of H1 heavy chain expression products by electrophoresis, H1L6, H1L11, and H1L12 were all shown with weak sub-bands visible below the main band of the heavy chain. […] This may cause serious quality problems of uniformity, which is very unfavorable for drug development. […] H4 and H5 were combined with L11, respectively, and analyzed by electrophoresis after expression. […]

Molecule | IC50 of cisplatin, control group (Bel7402-V13 sphere cells) [µg/mL] | IC50 of cisplatin, control group (SPCA-1 cells [1]) [µg/mL] | IC50 of cisplatin (SPCA-1 cells [2]; SPCA-1 Hetumomab+ cells) [µg/mL] | IC50 of cisplatin (SPCA-1 cells [2]; SPCA-1 Hetumomab− cells) [µg/mL] | IC50 of cisplatin (SPCA-1 cells [2]; SPCA-1 Parental Cells) [µg/mL] | Tumor Volume Inhibition Rate (%) [3] [%] | tumor volume inhibition rate ([4]; at drug withdrawal after 5 weeks) [%] | tumor growth rate ([4]; month after drug withdrawal) [cm^3/day] | tumor volume inhibition rate ([4]; one month after drug withdrawal) [%] | Tumor Volume Inhibition Rate (%) (SNU-5 transplanted tumor) | IC50 of cisplatin (Bel7402-V13 cells; Bel7402-V13 Hetumomab+ cells, 7 days) [µg/mL] | IC50 of cisplatin (Bel7402-V13 cells; Bel7402-V13 Hetumomab− cells) [µg/mL] | IC50 of cisplatin (Bel7402-V13 cells; Bel7402-V13 Parental Cells) [µg/mL] | Tumor Volume Inhibition Rate (%) [5] [%] | affinity by cellular ELISA [6]
N.N.[Cl][Pt][Cl] [cisplatin] | 0.9 | 0.351 | 0.707 | 0.180 | 0.513 | 24.91 | 83.5 | 0.154 | 48.6 | 33.16 | 0.739 | 0.313 | 0.502 | 14.52 | –
B1 | – | – | – | – | – | – | – | – | – | – | – | – | – | – | close to that of L6
